According to patent US4617394A, “4-methyl-5-(unsubstituted and substituted phenoxy)-2,6-dimethoxy-8-(aminoalkylamino) quinolines” (priority 1985, dated 1986):
Entries after “also recorded” stand apart in the source; their conditions may differ. Counter-ions that a name gives are not always drawn. Like-named read-outs stand apart in the source and are kept apart here.

Key:
[1] = test system: Plasmodium berghei KBG 173; test: animal or person; type: in vivo, young ICR/HA Swiss mice; conditions: for minimal effective dose: Plasmodium berghei, in Mus musculus; for suppressive activity in words: Rane mouse test; for ΔMST / Activity in words / Toxicity in words: 5 mice; for Activity in words / Toxicity in words: Rane, 20-640 mg/kg
Excerpt: Blood Schizonticidal Test (Mouse), University of Miami, Rane (suppressive)
This system is based on comparisons of responses to test compounds by Plasmodium berghei KBG 173 malaria in mice as expressed in mean survival times and the mean survival times of untreated controls. Thus, compounds noted as active produce increases in the survival times of the treated animals that are significant when compared with the survival times of untreated controls. Since an established disease is less sensitive to treatment than a disease in the early stages of development, treatment is withheld until the parasitemia is relatively high in order to insure a more reliable assay of activity and the selection of appropriate compounds for intensive preclinical studies.
Utilizing young ICR/HA Swiss mice and a standard inoculum of Plasmodium berghei KBG 173, it is possible to produce a uniform disease fatal to 100% of untreated animals within 6 to 8 days with a mean survival time of 6.2 days. Test animals weigh from 18 to 22 grams but weight variations in any given experimental or control group are confined to 2 to 3 grams. All animals in any given test are approximately of the same age. Animals on test are housed in metal-topped plastic cages, given a standard laboratory diet and water ad libitum.
Test animals receive an intraperitoneal injection of 0.5 ml of 1:100 dilution of heparinized heart's blood with a minimum of 90% parasitized cells (4×10^7 cells), drawn from donor mice infected one week earlier with Plasmodium berghei. The donor strain is maintained by weekly passages in separate groups of mice inoculated with a 0.5 ml of 1:500 dilution of heparinized heart's blood.
Test compounds are administered after dissolution or suspension in peanut oil. A single dose is given subcutaneously 72 hours after the mice are infected with Plasmodium berghei. At this time a 10-15 percent parasitemia has developed; the disease is well established but has not produced sufficient debility to alter the response of the host to toxic effects of the drug on test. Since treatment is withheld for three days to permit the infection to become well established and death occurs in untreated controls within 6 to 8 days, it is believed that this system presents a candidate compound with the maximum challenge. In order to check factors such as changes in the infectivity of Plasmodium berghei or in the susceptibility of the host or to detect technical errors, a group of infected animals treated with pyrimethamine at dose levels producing definite increases in survival time is included as a positive control in every experiment.
In each experiment test compounds are administered in graded doses. […] However, if an active drug is toxic for the host, its toxicity may become a limiting factor; continued increases in dose levels also increase the toxic effects and may result in the diminution of survival times. Deaths prior to the sixth day, when untreated controls begin to die, are regarded as non-parasitic and become the basis for the interpretation that the drug is toxic. Treated animals are kept under observation for 60 days. Survivors at the end of this period of time are considered as cured.
An increase of 100% in mean survival time is considered the minimum effective response for a candidate compound. In calculating mean survival time, toxic deaths and 60 day survivors are not included.

[2] = test system: Plasmodium cynomolgi (strain B); test: Radical Curative Test in Rhesus Monkeys, SEATO Medical Research Laboratory; type: in vivo, Indian rhesus monkeys; conditions: for Radical Curative Activity, Cures (C): Table 1, Seato Rhesus; for Radical Curative Activity, Cures (C) / Cures (C): P. cynomolgi; for Cures (C): Table 8, Seato
Description: Radical Curative Test in Rhesus Monkeys, SEATO Medical Research Laboratory, Bangkok,
This test is designed to evaluate the tissue schizonticidal (radical curative) activity of test compounds. Well-conditioned Indian rhesus monkeys of either sex weighing 2-4 Kg are utilized. Plasmodium cynomolgi (strain B) sporozoites are prepared by grinding heavily infected Anopheles dirus salivary glands in 1:1 monkey serum-saline vehicle.
Monkeys are infected by I.V. injection of 10^6 freshly isolated P. cynomolgi sporozoites on day 0. A rapidly rising parasitemia develops after a 7 to 9 day prepatient period, and administration of the test drug is initiated when the rising parasite count exceeds 5000 per mm^3 (typically day 10-12). Test drugs are administered orally (by nasogastric intubation) once daily for 7 consecutive days in aqueous solution or, if insoluble, in suspension in 0.3% methylcellulose solution. Chloroquine diphosphate (3.1 mg of base/kg orally per day) is always administered concurrently with the test drug for 7 days to eliminate blood schizonts. Thus any tissue schizonticidal activity of the test drug will always be apparent even if it lacks blood schizonticidal activity.
A vehicle control monkey and a positive drug control (primaquine) monkey are included in each group of inoculated monkeys.
The effect of the test drug is determined by counting blood parasites. Parasite counts are made daily through day 20, and every two days thereafter. Initially a clearance of blood parasites is observed due to the blood schizonticidal action of chloroquine. […] If there is no relapse within 20 days of the initial clearance of parasitemia, the monkey is splenectomized and its parasitemia followed for an additional 30 days. If there is no relapse within this period, the experiment is terminated and the monkey is considered "cured". Alternately, in some experiments, negative parasitemia was followed for 100 days without prior splenectomy. It has been determined that the splenectomy and non-splenectomy methods yield virtually identical results.
Primaquine diphosphate cures over 90% of monkeys in this test system when administered at a dose of 1.3 mg/kg of salt per day for 7 days ([…]) in combination with chloroquine.

[3] = Table 1, P. berghei, Rane Mouse Test, 160 mg/kg
[4] = text, listed as 5-(4-fluorophenoxy)-primaquine
[5] = text, listed as 5-(4-fluorophenoxy)primaquine

COc1cc(NC(C)CCCN)c2nccc(C)c2c1 (stereo not shown) [4-methylprimaquine diphosphate, 4-methylprimaquine]
minimal effective dose ([1]; read-out: active dose (active only at)): 160 mg/kg
minimal effective dose ([1]; curative only at this toxic dose, read-out: curative dose, suppressive test): 640 mg/kg
suppressive activity in words [1]: very weak activity at non-toxic dose levels
ΔMST [1, 3]: 9 days
ΔMST ([1]; Table 1, P. berghei, Rane Mouse Test, 320 mg/kg): 10 days
ΔMST ([1]; Table 4, 160 mg/kg): 9 days
ΔMST ([1]; Table 4, 320 mg/kg): 10 days
radical curative activity compared with primaquine, in words [2]: comparable to primaquine and somewhat greater in potentcy; also recorded: slightly more effective than primaquine
radical curative activity in words ([2]; 0.316 mg/kg): inactive
Cures ([2]; 1.0 mg/kg): 100%
Radical Curative Activity, Cures (C) ([2]; 0.316 mg/kg (× 7)): 0/4
Radical Curative Activity, Cures (C) ([2]; 1.0 mg/kg (× 7)): 2/2

COc1cc(NC(C)CCCN)c2ncccc2c1Oc1ccc(F)cc1 (stereo not shown) [5-(4-Fluorophenoxy)primaquine citrate, 5-(4-fluorophenoxy)-primaquine]
ΔMST ([1]; Table 1, P. berghei, Rane Mouse Test, 80 mg/kg): 7.0 days
ΔMST [1, 3]: 9 days
suppressive activity in words [1, 4]: active (and non-toxic) in mice at the high dose levels of 320 and 640 mg/kg
suppressive activity in words [1, 5]: not an effective suppressive drug
Radical Curative Activity, Cures (C) ([2]; 0.316 mg/kg (× 7)): 0/2
Radical Curative Activity, Cures (C) ([2]; 1.0 mg/kg (× 7)): 1/3
Radical Curative Activity, Cures (C) ([2]; 3.16 mg/kg (× 7)): 1/1
radical curative activity compared with primaquine, in words [2, 4]: no more active than primaquine in the Rhesus model as a radical curative drug
radical curative activity compared with primaquine, in words [2, 5]: not significantly better than that of primaquine

COc1cc(NC(C)CCCN)c2nc(O)cc(C)c2c1Oc1cccc(C(F)(F)F)c1 (stereo not shown) [Analog 1]
Activity in words ([1]; Table 8, P. berghei): Inactive
Toxicity in words ([1]; Table 8, P. berghei): non-toxic

COc1cc(NC(C)CCCN)c2nc(Oc3ccc(Cl)cc3)cc(C)c2c1Oc1cccc(C(F)(F)F)c1 (stereo not shown) [Analog 2]
Activity in words ([1]; Table 8, P. berghei): Inactive
Toxicity in words ([1]; Table 8, P. berghei): non-toxic

COc1cc(NC(C)CCCN)c2nc(OCc3ccc(Cl)cc3)cc(C)c2c1Oc1cccc(C(F)(F)F)c1 (stereo not shown) [Analog 3]
Activity in words ([1]; Table 8, P. berghei): Inactive
Toxicity in words ([1]; Table 8, P. berghei): non-toxic

COc1cc(NC(C)CCCN)c2nc(Cl)cc(C)c2c1Oc1cccc(C(F)(F)F)c1 (stereo not shown) [Analog 4]
Cures (C) ([1]; Table 8, number of 5 mice, 160 mg/kg): 1
Cures (C) ([2]; 0.1 mg/kg (×7)): 0/1
Cures (C) ([2]; 0.316 mg/kg (×7)): 1/2
Cures (C) ([2]; 1.0 mg/kg (×7)): 2/2
